# How the values were obtained:
# [1] = test system: isolation-induced aggressive behavior; assay: Isolation-Induced Aggression in Mice; type: in vivo, mouse (male Balb/c); conditions: po
# Experimental: Male Balb/c mice (Charles River) were used. […] Isolated mice failing to consistently attack an intruder were eliminated from the colony.
# Drug testing was carried out by treating the isolated mice with test drugs or standards. Fifteen min after dosing with drugs by the oral route (po), one isolated mouse was removed from its home cage and placed in the home cage of another isolate. Scoring was a yes or no response for each pair. A maximum of 3 min was allowed for an attack and the pair was separated immediately upon an attack. Selection of home cage and intruder mice was randomized for each test. Mice were treated and tested twice a week with at least a 2 day washout period between treatments.
# [2] = test system: (+)-N-allylnormetazocine-induced turning; assay: (+)-N-Allylnormetazocine-Induced Turning Behavior in Rats; type: in vivo, rat (male Sprague-Dawley); conditions: p.o.
# [3] = test system: Erysiphe graminis f. sp. tritici; assay: Test A: wheat powdery mildew disease control (wheat seedlings); type: in vivo; conditions: sprayed at 1000 to 2 ppm (rate not given per compound)
# Experimental: The test compounds were dissolved in acetone in an amount equal to 6% of the final volume and then suspended at a concentration of from 1000 to 2 ppm in purified water containing 250 ppm of the surfactant TREM 014 (polyhydric alcohol esters). This suspension was sprayed to the point of run-off on wheat seedlings. The following day plants were inoculated with a spore dust of Erysiphe graminis f. sp. tritici, the causal agent of wheat powdery mildew, and incubated in a growth chamber at 20° C. for 7 days, when disease ratings were made.
# Puccinia recondita = assay: Test B: wheat leaf rust disease control (wheat seedlings); type: in vivo; conditions: sprayed at 1000 to 2 ppm (rate not given per compound)
# Experimental: The test compounds were dissolved in acetone in an amount equal to 6% of the final volume and then suspended at a concentration of from 1000 to 2 ppm in purified water containing 250 ppm of the surfactant TREM 014 (polyhydric alcohol esters). This suspension was sprayed to the point of run-off on wheat seedlings.
# Venturia inaequalis = assay: Test C: apple scab disease control (apple seedlings); type: in vivo; conditions: sprayed at 1000 to 2 ppm (rate not given per compound)
# Experimental: (§1) The test compounds were dissolved in acetone in an amount equal to 6% of the final volume and then suspended at a concentration of from 1000 to 2 ppm in purified water containing 250 ppm of the surfactant TREM 014 (polyhydric alcohol esters). This suspension was sprayed to the point of run-off on apple seedlings. The following day plants were inoculated with a spore suspension of Venturia inaequalis, the causal agent of apple scab, and incubated in a saturated humidity chamber at 20° C. for 24 hours and then in a growth chamber at 22° C. for 11 days, when disease ratings were made.
# Cercosporidum personatum = assay: Test D: peanut late leaf spot disease control (peanut seedlings); type: in vivo; conditions: sprayed at 1000 to 2 ppm (rate not given per compound)
# Experimental: The test compounds were dissolved in acetone in an amount equal to 6% of the final volume and then suspended at a concentration of from 1000 to 2 ppm in purified water containing 250 ppm of the surfactant TREM 014 (polyhydric alcohol esters). This suspension was sprayed to the point of run-off on peanut seedlings. The following day plants were inoculated with a spore suspension of Cercosporidum personatum, the causal agent of peanut late leaf spot, and incubated in a saturated humidity chamber at 22° C. for 24 hours and then in a high humidity chamber at 27° C. for 7 days, and then in a growth chamber at 29° C. for 7 days, when disease ratings were made.
# Phytophthora infestans = type: in vivo; conditions: tomato late blight; sprayed at 1000 to 2 ppm (rate not given per compound)
# Pyricularia oryzae = type: in vivo; conditions: rice blast; sprayed at 1000 to 2 ppm (rate not given per compound)
# Rhizoctonia solani = assay: Test I: rice sheath blight disease control (rice seedlings); type: in vivo; conditions: sprayed at 1000 to 2 ppm (rate not given per compound)
# Experimental: The test compounds were dissolved in acetone in an amount equal to 6% of the final volume and then suspended at a concentration of from 1000 to 2 ppm in purified water containing 250 ppm of the surfactant TREM 014 (polyhydric alcohol esters). This suspension was sprayed to the point of run-off on rice seedlings. The following day plants were inoculated with a mycelial suspension of Rhizoctonia solani, the causal agent of rice sheath blight, and incubated in a saturated humidity chamber at 27° C. for 48 hours and then in a growth chamber at 29° C. for 4 days, when disease ratings were made.
# Botrytis cinerea = assay: Test E: cucumber grey mold disease control (cucumber seedlings); type: in vivo; conditions: sprayed at 1000 to 2 ppm (rate not given per compound)
# Experimental: as §1, with “cucumber” for “apple”, “Botrytis cinerea,” for “Venturia inaequalis,”, “cucumber grey mold,” for “apple scab,”, “48” for “24”, “greenhouse” for “growth chamber at 22° C.”, “5” for “11”
# Plasmopara viticola = assay: Test G: grape downy mildew disease control (grape seedlings); type: in vivo; conditions: sprayed at 1000 to 2 ppm (rate not given per compound)
# Experimental: The test compounds were dissolved in acetone in an amount equal to 6% of the final volume and then suspended at a concentration of from 1000 to 2 ppm in purified water containing 250 ppm of the surfactant TREM 014 (polyhydric alcohol esters). This suspension was sprayed to the point of run-off on grape seedlings. The following day plants were inoculated with a spore suspension of Plasmopara viticola, the causal agent of grape downy mildew, and incubated in a dew chamber at 20° C. for 24 hours and then in a growth chamber a 20° C. for 7 days, when disease ratings were made.
# sigma receptor = conditions: Tam, Eur. Pharmacol. 109: 33-41 (1985); cited from earlier work
SMILES,inhibiting the isolation-induced aggressive behavior (in words) [1],antagonism of N-allylnormetazocine-induced rotation (in words) [2],"disease control rating, Test A [3]","disease control rating, Test B (Puccinia recondita)","disease control rating, Test C (Venturia inaequalis)","disease control rating, Test D (Cercosporidum personatum)","disease control rating, Test F (Phytophthora infestans)","disease control rating, Test H (Pyricularia oryzae)","disease control rating, Test I (Rhizoctonia solani)","disease control rating, Test E (Botrytis cinerea)","disease control rating, Test G (Plasmopara viticola)",affinity for the sigma receptor (in words) (sigma receptor)
"Fc1ccc(OCC2CCN(Cc3ccccc3)CC2)cc1 [Example 68, 1-Benzyl-4-(4'-Fluorophenoxymethyl)piperidine]",potent activities,potently antagonized,–,–,–,–,–,–,–,–,–,–
Fc1ccc(COCC2CCN(Cc3ccc4ccccc4c3)CC2)cc1 [Example 114],potent activities,–,–,–,–,–,–,–,–,–,–,–
Clc1ccc(OCC2CCN(Cc3ccccc3)CC2)cc1 [Example 134],potent activities,–,–,–,–,–,–,–,–,–,–,–
O=[N+]([O-])c1ccc(OCC2CCN(Cc3ccccc3)CC2)cc1 [Example 135],potent activities,–,–,–,–,–,–,–,–,–,–,–
FC(F)(F)c1ccc(OCC2CCN(Cc3ccccc3)CC2)cc1 [Example 136],potent activities,–,–,–,–,–,–,–,–,–,–,–
Fc1ccc(OCC2CCN(Cc3ccc(Cl)cc3)CC2)cc1 [Example 138],potent activities,–,–,–,–,–,–,–,–,–,–,–
Fc1ccc(COCC2CCN(Cc3ccccc3)CC2)cc1 [Example 181],potent activities,–,87%,37%,55%,82%,0%,0%,0%,–,–,–
COc1ccc(COCC2CCN(Cc3ccccc3)CC2)cc1 [Example 182],–,–,63%,27%,0%,0%,0%,0%,0%,–,–,–
c1ccc(COCC2CCN(Cc3ccccc3)CC2)cc1 [Example 185],–,–,29%,0%,28%,26%,0%,0%,0%,0%,–,–
COC(=O)c1ccc(COCC2CCN(Cc3ccccc3)CC2)cc1 [Example 186],–,–,0%,–,81%,0%,0%,0%,0%,0%,–,–
COC(=O)c1ccc(CN2CCC(COCc3ccc(F)cc3)CC2)cc1 [Example 187],–,–,98%,96%,51%,0%,0%,0%,0%,0%,–,–
Fc1ccc(COCC2CCN(Cc3ccc(Cl)cc3)CC2)cc1 [Example 188],–,–,100%,72%,93%,82%,8%,0%,0%,18%,89%,–
Oc1ccc(CN2CCC(COCc3ccc(F)cc3)CC2)cc1 [Example 189],–,–,99%,26%,86%,75%,0%,0%,0%,0%,–,–
Fc1ccc(COCC2CCN(Cc3ccc4ccccc4c3)CC2)cc1 [Example 195],–,–,99%,73%,68%,46%,0%,0%,0%,0%,–,–
Fc1ccc(COCC2CCN(Cc3cccc4ccccc34)CC2)cc1 [Example 196],–,–,0%,–,90%,0%,26%,0%,0%,0%,40%,–
Fc1ccc(COCC2CCN(Cc3ccccc3)CC2)cc1 [Example 205],–,–,94%,35%,66%,30%,0%,0%,0%,33%,–,–
CCCCCCN1CCC(COCc2ccc(F)cc2)CC1 [Example 312],–,–,97%,27%,16%,51%,0%,0%,0%,0%,–,–
Fc1ccc(COCC2CCN(CCCc3ccccc3)CC2)cc1 [Example 313],–,–,97%,29%,40%,91%,0%,0%,0%,0%,–,–
CC(C)=CCN1CCC(COCc2ccc(F)cc2)CC1 [Example 314],–,–,91%,–,46%,75%,0%,0%,39%,8%,–,–
Fc1ccc(COC2CCN(Cc3ccccc3)CC2)cc1 [Example 315],–,–,99%,52%,90%,46%,0%,0%,19%,0%,–,–
"O=C(CCCN1CCC(O)(c2ccc(Cl)cc2)CC1)c1ccc(F)cc1 [Haloperidol, reference compound]",potent activities,potently antagonized,–,–,–,–,–,–,–,–,–,–
c1ccc(C2(N3CCCCC3)CCCCC2)cc1 [PCP],–,–,–,–,–,–,–,–,–,–,–,significant affinity
